Experimental data reported in patent US20020151526A1, “Bile-acid prodrugs of L-dopa and their use in the sustained treatment of parkinsonism” (priority 2000, published 2002).

How the values were obtained:
Human IBAT Transporter = target: T1, Human IBAT Transporter (Homo sapiens, UniProt Q12908); assay: Electrogenic transport in Xenopus oocytes expressing IBAT; format: cell-based; conditions: relative to glycodeoxycholate, test compound 100 μM
T1 sequence (Q12908 1-348): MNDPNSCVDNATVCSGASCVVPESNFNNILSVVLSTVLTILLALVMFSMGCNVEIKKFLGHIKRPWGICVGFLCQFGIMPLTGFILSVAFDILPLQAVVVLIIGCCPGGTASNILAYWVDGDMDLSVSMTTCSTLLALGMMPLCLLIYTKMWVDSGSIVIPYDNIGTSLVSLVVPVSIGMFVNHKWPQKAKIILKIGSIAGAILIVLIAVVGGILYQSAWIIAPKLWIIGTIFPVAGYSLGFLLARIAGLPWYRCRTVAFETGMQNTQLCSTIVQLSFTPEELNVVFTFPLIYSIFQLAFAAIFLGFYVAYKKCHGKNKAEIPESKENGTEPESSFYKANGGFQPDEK
Experimental: Human IBAT Transporter cDNAs were subcloned into a modified pGEM plasmid that contains 5′ and 3′ untranslated sequences from the Xenopus β-actin gene. These sequences increase RNA stability and protein expression. Plasmid cDNA was linearized and used as template for in vitro transcription (Epicentre Technologies transcription kit, 4:1 methylated:non-methylated GTP).
Xenopus oocyte isolation. Xenopus laevis frogs were anesthetized by immersion in Tricaine ([…] in deionized water) for 15 min. Oocytes were removed and digested in frog ringer solution (90 mM NaCl, 2 mM KCl, 1 mM MgCl2, 10 mM NaHEPES, pH 7.45, no CaCl2) with 1 mg/mL collagenase (Worthington Type 3) for 80-100 min with shaking. The oocytes were washed 6 times, and the buffer changed to frog ringer solution containing CaCl2(1.8 mM). Remaining follicle cells were removed if necessary. Cells were incubated at 16° C., and each oocyte injected with […] RNA in […] solution.
Electrophysiology measurements. Transport currents were measured 2-14 days after injection, using a standard two-electrode electrophysiology set-up (Geneclamp 500 amplifier, Digidata 1320/PCLAMP software and ADInstruments hardware and software were used for signal acquisition). Electrodes ([…]) were microfabricated using a Sutter Instrument puller and filled with 3M KCl. The bath was directly grounded (transporter currents were less than 0.3 μA). Bath flow was controlled by an automated perfusion system (ALA Scientific Instruments, solenoid valves).
For transporter pharmacology, oocytes were clamped at −60 to −90 mV, and continuous current measurements acquired using PowerLab Software and an ADInstruments digitizer. Current signals were lowpass filtered at 20 Hz and acquired at 4-8 Hz. All bath and drug-containing solutions were frog ringers solution containing CaCl2. Drugs were applied for 10-30 seconds until the induced current reached a new steady-state level, followed by a control solution until baseline currents returned to levels that preceded drug application. […]

[1] = cited from earlier work; for half-life: human, in vivo

| Compound | % Max. (GDC) response (Human IBAT Transporter) [%] | half-life [1] [h] | oral bioavailability of levodopa ([1]; from conventional formulations of levodopa/carbidopa (e.g. Sinemet)) | administered dose reaching the CNS intact ([1]; in patients) |
| --- | --- | --- | --- | --- |
| Cholyl-DOPA-(4-pivaloyloxymethyl) [(102)] | 104 | – | – | – |
| C[C@@](Cc1ccc(O)c(O)c1)(NN)C(=O)O [carbidopa] | – | ~2 | – | – |
| C[C@H](CCC(=O)N[C@@H](Cc1ccc2oc(=O)oc2c1)C(=O)O)[C@H]1CC[C@H]2[C@@H]3[C@H](O)C[C@@H]4C[C@H](O)CC[C@]4(C)[C@H]3C[C@H](O)[C@]12C [(104), Cholyl-Dopa-(3,4-carbonate)] | 25 | – | – | – |
| CC(CCC(=O)NC(Cc1ccc(O)c(O)c1)C(=O)O)C1CCC2C3C(O)CC4CC(O)CCC4(C)C3CC(O)C12C (stereo not shown) [(101), Cholyl-DOPA] | 0 | – | – | – |
| N[C@@H](Cc1ccc(O)c(O)c1)C(=O)O [levodopa, L-dihydroxyphenylalanine] | – | ~2 | 84-99% | less than 1% |
